Assays:
MDA-MB-231 = assay: Western blotting of apoptosis and autophagy markers; type: cell-based, human; details: MDA-MB-231, Western blotting
Procedure: Each sample containing 30 μg protein mixture was loaded into a well on SDS-PAGE gel and separated through electrophoresis, followed by protein determination using specific antibodies against PARP (1:1000, Cat. #9542; Cell Signaling Technology, Danvers, MA, USA), GAPDH (1:5000, Cat. GTX100118; GeneTex, Irvine, CA, USA), Bax (1:1000, Cat. ARG65612; Arigo, Glasgow, UK), Bcl-2 (1:1000, Cat. ARG55188; Arigo, Glasgow, UK) and LC3-I/II (1:1000, Cat. #12741; Cell Signaling Technology, Danvers, MA, USA). Primary antibodies were targeted by horseradish peroxidase (HRP) conjugated anti-mouse (1:5000, Cat. A9044, Sigma-Aldrich, Burlington, VT, USA) or anti-rabbit (1:5000, Cat. SI-A0545; Sigma-Aldrich, Burlington, VT, USA) secondary antibodies for visualizing immunoblots. Results were imaged by ChemiDoc system (Bio-Rad Laboratories, Hercules, CA, USA) and semi-quantification was conducted using Image Lab system (Bio-Rad Laboratories, Hercules, CA, USA).

MDA-MB-231 cells = assay: DNA fragmentation (agarose gel); type: cell-based, human; details: MDA-MB-231, 24 h
Procedure: DNA samples suspended in DNA lysis buffer containing 1.0 mM Tris hydrochloride (pH 7.5), 10 mM EDTA (pH 8.0), 10 mM sodium chloride and 0.5% Triton X-100.

[1] = CDX model: body and organ weight, CBC and blood biochemistry; type: in vivo; details: NSG mice
Procedure: The procedures for the establishment of breast cancer-bearing xenograft models were modified from a previous publication and approved by the Taipei Medical University (TMU) Institutional Animal Care and Use Committee (IACUC No. LAC-2020-0175). Overall, 4- to 6-week-old NOD.Cg-PrkdcscidIl2rgtm1Wjl/SzJ (NSG) female mice purchased from National Laboratory Animal Center (Taipei, Taiwan) were housed in specific pathogen-free rooms with ad libitum feeding and 12 h light–dark cycle. After a week of acclimatization, 2 × 10^6 MDA-MB-231 cells suspended in 1:1 ratio of phosphate-buffered saline plus Matrigel® Matrix (Cat. 356237; Corning Inc., New York, NY, USA) were subcutaneously injected on the right flank of each mouse. […] To monitor tumor growth in the models, tumor diameter was measured using an electronic caliper and values were applied on the equation: width^2 × length × 0.52 to estimate their tumor volume. All mice were sacrificed on day 28 after treatment. Plasma, tumors and major organs (heart, liver, kidney, spleen and lung) were collected for toxicity assessment and metastasis evaluation. Whole blood harvested from sacrificed animals was collected in EDTA-containing or heparin-containing tubes for CBC and biochemical analysis. For biochemical analysis, whole blood was centrifuged under 2000× g for 5 min to separate plasma from blood cells and then plasma was kept and stored in a −20 °C fridge until further analysis. Concentrations of albumin, total protein, aspartate aminotransferase (AST), alanine aminotransferase (ALT) and creatinine (CREA) in plasma, numbers of red blood cells (RBC), platelets (PLT), white blood cells (WBC) and hemoglobin (HGB) concentration in EDTA-anticoagulated whole blood were determined by medical laboratory scientists in Taipei Medical University Hospital (Taipei, Taiwan).

[2] = PDX model: body and organ weight, CBC and blood biochemistry; type: in vivo; details: NSG mice
Text: The procedures for the establishment of breast cancer-bearing xenograft models were modified from previous publications and approved by the Taipei Medical University (TMU) Institutional Animal Care and Use Committee (IACUC No. LAC- 2021-0546) and the Joint Institutional Review Board of Taipei Medical University (N201812005). Overall, 4- to 6-week-old NOD.Cg-PrkdcscidIl2rgtm1Wjl/SzJ (NSG) female mice purchased from BioLASCO Taiwan Co., Ltd. (Taipei, Taiwan) were housed in specific pathogen-free rooms with ad libitum feeding and 12 h light–dark cycle. Patient-derived TNBC tumors were microscopically considered for a hypervascular background and frequent mitosis features, and triple-negative results for estrogen receptor, progesterone receptor and human epidermal growth factor receptor 2 (HER2). After a week of acclimatization, patient-derived TNBC tumors dissected into 3 × 3 × 3 mm^3 were implanted using puncture needle in fat pads between the third and fourth mammary glands for each mouse. […] Tumor growth curves were generated by measuring tumor diameters and then calculating based on the same equation described above. Finally, the mice were sacrificed on day 23 after the first dose of treatments. Plasma, tumors and major organs (heart, liver, kidney, spleen and lung) were collected for toxicity assessment and metastasis evaluation. Whole blood harvested from sacrificed animals was collected in EDTA-containing or heparin-containing tubes for CBC and biochemical analysis. For biochemical analysis, whole blood was centrifuged under 2000× g for 5 min to separate plasma from blood cells and then plasma was kept and stored in a −20 °C fridge until further analysis. Concentrations of albumin, total protein, aspartate aminotransferase (AST), alanine aminotransferase (ALT) and creatinine (CREA) in plasma, numbers of red blood cells (RBC), platelets (PLT), white blood cells (WBC) and hemoglobin (HGB) concentration in EDTA-anticoagulated whole blood were determined by medical laboratory scientists in Taipei Medical University Hospital (Taipei, Taiwan).

[3] = 2.11 mg/kg i.p. weekly x4, day 28
[4] = 5 mg/kg i.p. weekly x4, day 28, reference interval 0.2–0.5
[5] = 5 mg/kg i.p. weekly x4, day 28, reference interval 4–10.9
[6] = 5 mg/kg i.p. weekly x4, day 28, reference interval 7.75–9.61
[7] = 5 mg/kg i.p. weekly x4, day 28, reference interval 13–39
[8] = 5 mg/kg i.p. weekly x4, day 28, reference interval 63–227
[9] = 5 mg/kg i.p. weekly x4, day 28, reference interval 853–1951
[10] = 5 mg/kg i.p. weekly x4, day of sacrifice (day 28)
[11] = 2.11 mg/kg i.v. weekly x4, day 23
[12] = 5 mg/kg i.v. weekly x4, day 23, reference interval 0.2–0.5
[13] = 5 mg/kg i.v. weekly x4, day 23, reference interval 13–39
[14] = 5 mg/kg i.v. weekly x4, day 23, reference interval 63–227
[15] = 5 mg/kg i.v. weekly x4, day 23, reference interval 853–1951
[16] = 5 mg/kg i.v. weekly x4, day of sacrifice (day 23)

N.N.[Cl][Pt][Cl] [CDDP, Cis-diamineplatinum(II) dichloride]
LC3 I conversion to LC3 II (autophagy marker) (MDA-MB-231): could not induce apoptotic and autophagy signaling | cleaved form of PARP (MDA-MB-231): failed to induce the formation of the cleaved form of PARP | DNA fragmentation (MDA-MB-231 cells): no sign of cisplatin-induced PS expression or DNA fragmentation | Heart [1, 3]: 0.14 ± 0.04 g | Kidney [1, 3]: 0.31 ± 0.02 g | Liver [1, 3]: 1.04 ± 0.08 g | Lung [1, 3]: 0.23 ± 0.04 g | Spleen [1, 3]: 0.03 ± 0.00 g | CREA ([1]; 2.11 mg/kg i.p. weekly x4, day 28, reference interval 0.2–0.5): 0.20 ± 0.00 mg/dL | WBC ([1]; 2.11 mg/kg i.p. weekly x4, day 28, reference interval 4–10.9): 3.48 ± 0.13 ^§ 10^3/µL | RBC ([1]; 2.11 mg/kg i.p. weekly x4, day 28, reference interval 7.75–9.61): 9.25 ± 0.33 10^6/µL | ALT ([1]; 2.11 mg/kg i.p. weekly x4, day 28, reference interval 13–39): 34.25 ± 9.18 U/L | AST ([1]; 2.11 mg/kg i.p. weekly x4, day 28, reference interval 63–227): 120.3 ± 20.82 U/L | PLT ([1]; 2.11 mg/kg i.p. weekly x4, day 28, reference interval 853–1951): 867.3 ± 97.6 10^3/µL | Body weight ([1]; 2.11 mg/kg i.p. weekly x4, day of sacrifice (day 28)): 24.08 ± 2.89 g | Heart ([1]; 5 mg/kg i.p. weekly x4, day 28): 0.13 ± 0.01 g | Kidney ([1]; 5 mg/kg i.p. weekly x4, day 28): 0.29 ± 0.02 g | Liver ([1]; 5 mg/kg i.p. weekly x4, day 28): 0.98 ± 0.10 g | Lung ([1]; 5 mg/kg i.p. weekly x4, day 28): 0.26 ± 0.13 g | Spleen ([1]; 5 mg/kg i.p. weekly x4, day 28): 0.13 ± 0.18 g | CREA [1, 4]: 0.23 ± 0.05 mg/dL | WBC [1, 5]: 6.33 ± 1.59 10^3/µL | RBC [1, 6]: 9.18 ± 0.46 10^6/µL | ALT [1, 7]: 29.00 ± 3.46 U/L | AST [1, 8]: 172.3 ± 44.28 U/L | PLT [1, 9]: 927.80 ± 223.4 10^3/µL | Body weight [1, 10]: 22.20 ± 2.12 g | Kidney [2, 11]: 0.33 ± 0.03 g | Liver [2, 11]: 1.51 ± 0.12 g | Lung [2, 11]: 0.23 ± 0.01 g | Spleen [2, 11]: 0.22 ± 0.07 g | CREA ([2]; 2.11 mg/kg i.v. weekly x4, day 23, reference interval 0.2–0.5): 0.20 ± 0.00 mg/dL | WBC ([2]; 2.11 mg/kg i.v. weekly x4, day 23, reference interval 4–10.9): 6.09 ± 1.32 * 10^3/µL | RBC ([2]; 2.11 mg/kg i.v. weekly x4, day 23, reference interval 7.75–9.61): 7.41 ± 0.51 10^6/µL | ALT ([2]; 2.11 mg/kg i.v. weekly x4, day 23, reference interval 13–39): 14.00 ± 4.90 U/L | AST ([2]; 2.11 mg/kg i.v. weekly x4, day 23, reference interval 63–227): 207.00 ± 101.18 U/L | PLT ([2]; 2.11 mg/kg i.v. weekly x4, day 23, reference interval 853–1951): 946.75 ± 150.28 10^3/µL | Body weight ([2]; 2.11 mg/kg i.v. weekly x4, day of sacrifice (day 23)): 24.06 ± 2.18 g | Heart ([2]; 5 mg/kg i.v. weekly x4, day 23): 0.11 ± 0.02 g | Kidney ([2]; 5 mg/kg i.v. weekly x4, day 23): 0.35 ± 0.04 g | Liver ([2]; 5 mg/kg i.v. weekly x4, day 23): 1.63 ± 0.22 g | Lung ([2]; 5 mg/kg i.v. weekly x4, day 23): 0.23 ± 0.03 g | Spleen ([2]; 5 mg/kg i.v. weekly x4, day 23): 0.17 ± 0.04 g | CREA [2, 12]: 0.15 ± 0.10 mg/dL | ALT [2, 13]: 13.00 ± 3.27 U/L | AST [2, 14]: 137.00 ± 34.79 U/L | PLT [2, 15]: 877.00 ± 170.99 10^3/µL | Body weight [2, 16]: 25.48 ± 0.98 g

FC(F)C(F)(F)COCc1ccnc(-c2cc(COCC(F)(F)C(F)F)ccn2)c1.[Cl][Pt][Cl] [TFBPC]
Bax/Bcl-2 ratio (MDA-MB-231): increase in Bax/Bcl-2 ratio | LC3 I conversion to LC3 II (autophagy marker) (MDA-MB-231): LC3 I conversion to LC3 II | cleaved form of PARP (MDA-MB-231): formation of the cleaved form of PARP | DNA fragmentation (MDA-MB-231 cells): DNA fragmentation confirms TFBPC-induced apoptosis | Heart ([1]; 5 mg/kg i.p. weekly x4, day 28): 0.14 ± 0.04 g | Kidney ([1]; 5 mg/kg i.p. weekly x4, day 28): 0.31 ± 0.02 g | Liver ([1]; 5 mg/kg i.p. weekly x4, day 28): 1.04 ± 0.08 g | Lung ([1]; 5 mg/kg i.p. weekly x4, day 28): 0.23 ± 0.04 g | Spleen ([1]; 5 mg/kg i.p. weekly x4, day 28): 0.03 ± 0.00 g | CREA [1, 4]: 0.20 ± 0.00 mg/dL | Albumin ([1]; 5 mg/kg i.p. weekly x4, day 28, reference interval 3.0–3.9): 3.20 ± 0.29 g/dL | WBC [1, 5]: 5.70 ± 1.54 10^3/µL | Total protein ([1]; 5 mg/kg i.p. weekly x4, day 28, reference interval 4.5–5.5): 4.98 ± 0.17 g/dL | RBC [1, 6]: 9.85 ± 0.30 10^6/µL | HGB ([1]; 5 mg/kg i.p. weekly x4, day 28, reference interval 12.20–13.90): 14.9 ± 0.53 g/dL | ALT [1, 7]: 38.75 ± 7.09 U/L | AST [1, 8]: 190.0 ± 65.17 U/L | PLT [1, 9]: 975 ± 205.8 10^3/µL | Body weight [1, 10]: 23.62 ± 1.56 g | Kidney ([2]; 5 mg/kg i.v. weekly x4, day 23): 0.36 ± 0.02 g | Liver ([2]; 5 mg/kg i.v. weekly x4, day 23): 1.58 ± 0.11 g | Lung ([2]; 5 mg/kg i.v. weekly x4, day 23): 0.24 ± 0.02 g | Spleen ([2]; 5 mg/kg i.v. weekly x4, day 23): 0.30 ± 0.05 g | CREA [2, 12]: 0.10 ± 0.12 mg/dL | Albumin ([2]; 5 mg/kg i.v. weekly x4, day 23, reference interval 3.0–3.9): 2.93 ± 0.40 g/dL | Total protein ([2]; 5 mg/kg i.v. weekly x4, day 23, reference interval 4.5–5.5): 4.6 ± 0.32 g/dL | RBC ([2]; 5 mg/kg i.v. weekly x4, day 23, reference interval 7.75–9.61): 6.97 ± 0.58 10^6/µL | HGB ([2]; 5 mg/kg i.v. weekly x4, day 23, reference interval 12.20–13.90): 11.8 ± 0.56 g/dL | ALT [2, 13]: 14.75 ± 4.50 U/L | AST [2, 14]: 131.75 ± 31.70 U/L | PLT [2, 15]: 872.75 ± 81.04 10^3/µL | Body weight [2, 16]: 25.72 ± 1.22 g
